Data on 27 molecules can be found in US5032594A, “Tricyclic fused pyrimidine derivatives, their production and use” (Takeda Chemical Industries, Ltd., priority 1989, dated 1991).

Read-outs that look alike come from different tables or passages of the source. Some results are limits rather than exact numbers.

Test [1] has as its system motility depression (depression of consciousness level) associated with cerebral ischemia. Kind of test: Recovery of motility after experimental cerebral ischemia. The format is in vivo, Wistar rats. To be noted: for Time to reappearance of spontaneous motility: control 81.5 ± 13.3. The source says: Experimental cerebral ischemia was produced in accordance with the method of Pulsinelli et al. (Stroke 10, 267-272, 1979), using Wistar rats 8-week old. On the first day of the experiment, the rats were anesthetized with pentobarbital, and their occipital skin and muscle were incised along the median line, then their vertebral arteries were cauterized bilaterally, and their ventral necks were incised, the bilateral common carotid arteries were separated from the surrounding tissue, to which a thread was applied. On the next day, the common carotid arteries were drawn out by the use of this thread under anaesthetic conditions, and occluded with clips for 30 minutes. By this treatment, serious cerebral ischemia was induced. After 30 minutes' occlusion, the clip was removed to allow the cerebral circulation to resume. Time to recovery of righting reflex and time to reappearance of spontaneous motor activity were measured on individual test animals. The test compound was orally administered to the animals as a 5% suspension in gum arabic one hour before causing the cerebral ischemia and immediately after the resumption of cerebral circulation. The control group was orally administered with only a 5% gum arabic suspension.

In test [2] the test system is impaired learning after cerebral ischemia. Nature of the test: Passive avoidance learning impaired after cerebral ischemia. The format is in vivo, Wistar rats. How it is done: As in the case of the above test (3-1), Wistar rats were used to produce an experimental model for cerebral ischemia. In this experiment, the time during which cerebral ischemia was caused in the animals was 5 minutes. By this treatment, a passive avoidance learning impairments was induced. The passive avoidance learning was tested in accordance with the method in Experiment 1. The test compound was suspended in a 5% gum arabic vehicle. Test animals were administered with this suspension three times, i.e. one hour prior to causing cerebral ischemia, two hours prior to a passive avoidance learning and two hours prior to the test. The control group was administered with only a 5% gum arabic suspension.

Test [3] relates to Retention deficit induced by scopolamine. Nature of the test: Passive avoidance task, retention deficit induced by scopolamine. The format is in vivo, mice. The following applies: scopolamine 1 mg/kg i.p.; for recovery of memory: orally administered 5% gum arabic suspension, in words; for Avoidance Time (%): p.o., 3 mg/kg, percent change rate relative to control (100), P < 0.05. The source says:
Actions of the compound (8) obtained in Working Example 8 and the compound (9) obtained in Working Example 9 on amelioration of memory impairment was studied using the passive avoidance task shown below. Five-week old male mice were placed first in the light chamber of a passive avoidance learning apparatus consisting of light and dark chambers. The mice immediately moved into the dark chamber, then an unescapable electric shock (0.5 mA, 3 sec.) was applied to the animals. These animals retained for several weeks the memory that they received the electric shock. This memory retention was disrupted by the following procedure, and the effect of the compounds (8) and (9) was tested. Thirty minutes prior to the application of electric shock, these animals were each administered with scopolamine (1 mg/kg, i.p), then these mice lost the memory of this experience of an electric shock.
On the following day, a retention recovery test was conducted. These mice were again placed in the light chamber of the passive avoidance apparatus and the time until the animals moved into the dark chamber (avoidance time) was measured. These mice which lost the memory of the experience of an electric shock moved again into the dark chamber in 10 to 20 seconds. […] The effects of these test compounds were examined by comparing the average value (11-15 animals/group) of the period of time during which the mice stayed in the light chamber with that of the control group (administered only a suspension of 5% gum arabic containing no test compound). The results were expressed by the percent change rate relative to the mean value (100) in the control group (Table 5).

Test [4] concerns the target T1, A1 receptor (Rattus norvegicus, UniProt P25099).
T1 construct: a rat was decapitated, and the cerebral cortex (A1 receptor); from tissue; host or cells: rat cerebral cortex membranes
T1 sequence (P25099 1-326): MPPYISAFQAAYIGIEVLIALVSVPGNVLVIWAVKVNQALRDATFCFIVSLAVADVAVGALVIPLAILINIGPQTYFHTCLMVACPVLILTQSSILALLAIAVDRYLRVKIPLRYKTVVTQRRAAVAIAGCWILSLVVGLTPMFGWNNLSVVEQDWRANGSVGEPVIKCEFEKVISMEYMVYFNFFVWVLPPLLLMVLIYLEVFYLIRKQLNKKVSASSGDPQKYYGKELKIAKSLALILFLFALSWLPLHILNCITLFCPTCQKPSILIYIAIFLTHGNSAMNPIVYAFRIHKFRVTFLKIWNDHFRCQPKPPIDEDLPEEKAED
Kind of test: A1 receptor antagonism (inhibition of 3H-cyclohexyladenosine binding, rat cerebral cortex membranes). How it is done: (§1) Preparation of membranes was performed in accordance with the method of Burns et al. described in Proc. Natl. Acad. Sci., 77, 5547 (1980). More specifically, a rat was decapitated, and the cerebral cortex (A1 receptor) or corpus striatun (A2 receptor) was suspended using Polyton in a Tris-HCl buffer solution of pH 7.7 (50 mM, 20 ml). This suspension was centrifuged at 48,000 g for 10 minutes, and the pellet was resuspended and centrifuged in a similar manner. The pellet was resuspended in a Tris-HCl buffer solution (50 mM), to which was added adenosine deaminase (2U/ml). The mixture was incubated at 37° C. for 30 minutes. This suspension was centrifuged and the pellet was stored at -20° C.
(§2) Using the above-mentioned pellet, adenosine antagonism (A1 and A2) was examined.
The above-mentioned pellet was thawed at room temperature and suspended in a Tris-HCl buffer solution. To the suspension (0.9 ml) were added ^3 H-cyclohexyladenosine (^3 H-CHA)(ca. 0.05 μCi, 0.1 ml) and the test drug (10 μl), and the mixture was incubated at 25° C. for 60 minutes. The reaction mixture was subjected to filtration with GF/B filter. The filter was washed four times with a Tris-HCl buffer solution. The radioactivity on the filter was measured by liquid scintillation. The nonspecific binding amount was measured in the presence of 10^-5 M of L-phenyl isopropyladenosine.

Test [5] concerns the target T2, A2 receptor (Rattus norvegicus, UniProt P30543).
T2 construct: corpus striatun (A2 receptor); from tissue; host or cells: rat corpus striatum membranes
Kind of test: A2 receptor antagonism (inhibition of 3H-NECA binding, rat corpus striatum membranes). The following applies: in presence of 50 nM cyclopentyladenosine, read-out: A2 receptor (Ki, μM), binding-inhibition constant. As to the method:
as §1, §2
The experiment was performed analogously to that for A1 receptor antagonism. Using ^3 H-adenosine-5'-ethylcarboxamide (^3 H-NECA; about 0.1 μCi) as ligand, the experiment was conducted in the presence of 50 nM of cyclopentyladenosine. The nonspecific binding amount was measured in the presence of 10^-4 M of cyclopentyladenosine.

[6] abbreviates: rat cerebral cortex, 3H-CHA, 25° C., 60 minutes, read-out: A1 receptor (Ki, μM), binding-inhibition constant.

T2 sequence (P30543 whole entry): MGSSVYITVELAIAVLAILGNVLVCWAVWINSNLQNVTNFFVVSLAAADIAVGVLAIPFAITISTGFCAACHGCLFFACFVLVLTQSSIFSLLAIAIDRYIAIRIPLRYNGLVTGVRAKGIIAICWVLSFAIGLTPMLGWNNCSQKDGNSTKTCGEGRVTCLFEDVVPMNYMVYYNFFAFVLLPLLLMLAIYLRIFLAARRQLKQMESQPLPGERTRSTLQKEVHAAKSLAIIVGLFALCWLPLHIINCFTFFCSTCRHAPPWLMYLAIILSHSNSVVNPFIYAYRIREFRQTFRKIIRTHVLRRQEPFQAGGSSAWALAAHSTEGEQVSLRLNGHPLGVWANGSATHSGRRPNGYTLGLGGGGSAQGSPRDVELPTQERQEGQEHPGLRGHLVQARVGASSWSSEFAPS

With `CCCn1c(=O)c2c(nn3cc[nH]c23)n(Cc2ccccc2)c1=O` [Working Example 8, 1-Benzyl-3-propyl-1,2,3,4-tetrahydro-5H-imidazo[2',1':5,1]pyrazolo[3,4-d]pyrimidine-2,4-dione], the “Time to recovery of righting reflex” value in test [1] (3 mg/kg oral, 30 minutes occlusion, average ± standard error, control 29.8 ± 5.9) was 21.0 ± 3.2 min; in test [1] (10 mg/kg oral, 30 minutes occlusion, average ± standard error, control 29.8 ± 5.9) it was 16.7 ± 2.6 min; in test [1] (in words), “tended to shorten the time to recovery of righting reflex dosedependently”. Besides, the “Time to reappearance of spontaneous motility” value in test [1] (3 mg/kg oral, 30 minutes occlusion, average ± standard error) came to 55.2 ± 6.5 min; in test [1] (10 mg/kg oral, 30 minutes occlusion, average ± standard error, P < 0.05) it was 43.8 ± 4.7 min. The “time to reappearance of spontaneous motor activity” value in test [1] (in words) is “shortened the time to reappearance of spontaneous motor activity”. Further, the Avoidance time result in test [2] (3 mg/kg and 10 mg/kg, in words) was “prolonged the avoidance time, in the doses of 3 mg/kg and 10 mg/kg, dose-dependently”; in test [2] (3 mg/kg, 5 minutes ischemia, median, control 17.5), 152.8 s; in test [2] (10 mg/kg, 5 minutes ischemia, median, control 17.5, P < 0.05) it was 285.9 s. Further, the recovery of memory result in test [3] is “recovered the memory”.

On to `CCCn1c(=O)c2c(nn3cc[nH]c23)n(Cc2ccc(Cl)cc2)c1=O` [Working Example 9], for which, in test [3], the recovery of memory result is “recovered the memory”.

In general, Ki refers to the equilibrium dissociation constant of an inhibitor or competing ligand from its target. Take `CCCn1c(=O)c2c3n(nc2n(Cc2ccccc2)c1=O)CCN3` [compound 1]: the values for the Ki in test [4] (setting [6]) and in test [5] were 0.12 µM and 3.3 µM, respectively.

As for `CCCn1c(=O)c2c3n(nc2n(Cc2ccc(Cl)cc2)c1=O)CCN3` [compound 2], the inhibitory constant (Ki) in test [4] (setting [6]) was 0.14 µM; in test [5], 2.9 µM.

On to `CCCn1c(=O)c2c3n(nc2n(Cc2cccc(Cl)c2)c1=O)CCN3` [compound 3], for which the inhibition constant Ki in test [4] (setting [6]) came out at 0.19 µM; in test [5], 4.2 µM.

As for `CCCn1c(=O)c2c3n(nc2n(Cc2ccccc2Cl)c1=O)CCN3` [compound 4], the Ki in test [4] (setting [6]) worked out at 0.27 µM; in test [5], 6.5 µM.

`CCCCn1c(=O)n(Cc2ccccc2)c(=O)c2c3n(nc21)CCN3` [compound 5]: the Ki in test [4] (setting [6]) came to 0.67 µM; in test [5], 4.5 µM.

On to `CCCn1c(=O)c2c(nn3cc[nH]c23)n(Cc2ccccc2)c1=O` [compound 8], for which the values for the inhibition constant (Ki) in test [4] (setting [6]) and in test [5] were 0.034 µM and 0.26 µM, respectively. In test [3], the “Avoidance Time (%)” value is recorded as 243%.

Turning to `CCCn1c(=O)c2c(nn3cc[nH]c23)n(Cc2ccc(Cl)cc2)c1=O` [compound 9], the Ki in test [4] (setting [6]) came out at 0.05 µM; in test [5], 0.37 µM. The “Avoidance Time (%)” value in test [3] came to 262%.

On to `CCCn1c(=O)c2c(nn3cc[nH]c23)n(Cc2cccc(Cl)c2)c1=O` [compound 10], for which the Ki is 0.098 µM in test [4] (setting [6]) and 0.46 µM in test [5].

As to `CCCn1c(=O)c2c(nn3cc[nH]c23)n(Cc2ccccc2Cl)c1=O` [compound 11], the Ki worked out at 0.092 µM in test [4] (setting [6]) and 1 µM in test [5].

On to `CCCCn1c(=O)n(Cc2ccccc2)c(=O)c2c1nn1cc[nH]c21` [compound 12], for which the Ki in test [4] (setting [6]) was 0.2 µM; in test [5], 1.1 µM.

As for `CCCn1c(=O)c2c(nn3cc[nH]c23)n(CCc2ccccc2)c1=O` [compound 13], the results for the Ki in test [4] (setting [6]) and in test [5] were 0.53 µM and 16 µM, respectively.

Take `CCCn1c(=O)c2c(nn3cc[nH]c23)n(CCCc2ccccc2)c1=O` [compound 14]: the values for the Ki in test [4] (setting [6]) and in test [5] were 0.11 µM and 2.5 µM, respectively.

With `CCCn1c(=O)c2c(nn3cc(-c4ccccc4)[nH]c23)n(Cc2ccccc2)c1=O` [compound 15], the figures for the inhibitory constant (Ki) in test [4] (setting [6]) and in test [5] were 0.01 µM and 0.28 µM, respectively.

For `CCCn1c(=O)c2c(nn3c(C)c(C)[nH]c23)n(Cc2ccccc2)c1=O` [compound 16], the Ki in test [4] (setting [6]) came to 0.024 µM; in test [5] it was 0.43 µM.

On to `CCCCc1cn2nc3c(c(=O)n(CCC)c(=O)n3Cc3ccccc3)c2[nH]1` [compound 17], for which the inhibition constant (Ki) was 0.0051 µM in test [4] (setting [6]) and 0.35 µM in test [5].

For the molecule `CCCn1c(=O)c2c(nn3c4c([nH]c23)CCCC4)n(Cc2ccccc2)c1=O` [compound 19], the inhibition constant Ki in test [4] (setting [6]) was 0.027 µM; in test [5] it was 0.19 µM.

For `CCCn1c(=O)c2c(nn3cc(-c4cccc(OC)c4)[nH]c23)n(Cc2ccccc2)c1=O` [compound 21], the values for the Ki in test [4] (setting [6]) and in test [5] were 0.0069 µM and 0.12 µM, respectively.

As to `CCCn1c(=O)c2c(nn3cc(-c4ccc(OC)cc4)[nH]c23)n(Cc2ccccc2)c1=O` [compound 22], the values for the inhibition constant Ki in test [4] (setting [6]) and in test [5] were 0.0047 µM and 0.21 µM, respectively.

For the molecule `CCCn1c(=O)c2c(nn3cc(-c4ccccc4OC)[nH]c23)n(Cc2ccccc2)c1=O` [compound 23], the inhibitory constant (Ki) in test [4] (setting [6]) was determined as 0.53 µM; in test [5], 0.5 µM.

Consider `CCCCOc1ccc(-c2cn3nc4c(c(=O)n(CCC)c(=O)n4Cc4ccccc4)c3[nH]2)cc1` [compound 24], for which the Ki is 0.053 µM in test [4] (setting [6]) and greater than 0.5 µM in test [5].

On to `CCCn1c(=O)c2c(nn3cc(-c4ccc(C)cc4)[nH]c23)n(Cc2ccccc2)c1=O` [compound 25], for which the Ki in test [4] (setting [6]) was 0.58 µM; in test [5], greater than 0.5 µM.

Consider `CCCn1c(=O)c2c(nn3cc(-c4cccc(Cl)c4)[nH]c23)n(Cc2ccccc2)c1=O` [compound 26], for which the inhibitory constant (Ki) in test [4] (setting [6]) is 0.037 µM; in test [5], greater than 0.5 µM.

Consider `CCCn1c(=O)c2c(nn3cc(-c4ccccc4Cl)[nH]c23)n(Cc2ccccc2)c1=O` [compound 27], for which the Ki is 0.58 µM in test [4] (setting [6]) and greater than 0.5 µM in test [5].

`CCCCn1c(=O)[nH]c(=O)c2c3n(nc21)CCN3` [compound 29]: the inhibitory constant (Ki) in test [4] (setting [6]) came out at 18 µM; in test [5] it was 39 µM.

In the case of `CCCn1c(=O)[nH]c2nn3cc[nH]c3c2c1=O` [compound 30], the inhibitory constant (Ki) in test [4] and in test [5] was 0.42 µM each time.
